Test results as given in US5164405A, “Nicardipine pharmaceutical composition for parenteral administration” (Syntex (U.S.A.) Inc., priority 1990, dated 1992).

How the values were obtained:
[1] = physchem; type: physicochemical; details: for solubility thermodynamic: Equilibrium solubility
Excerpt: The solubilities were equilibrium solubilities measured by a saturated solution method well known to those skilled in the art.

[2] = Dissolution, free base precipitation and tonicity on preparation of formulations; type: physicochemical; details: for Dissolution: added to citrate buffer solution; for Dissolution / Dissolution in water for injection / free base precipitation: monohydrochloride; for Dissolution in water for injection / free base precipitation: unbuffered water for injection, before pH adjustment
Description: With regard to the process for producing the stable pharmaceutical composition according to the inventions, preferably the citric acid and sodium hydroxide is first dissolved in some water for injection to form a solution of the desired pH. The nicardipine HCI and sorbitol are then added and dissolved in this solution of controlled pH and the resulting solution made to volume with the remainder of the water for injection.
A. In an initial attempt to formulate a pharmaceutical composition of nicardipine hydrochloride suitable for parenteral administration employing conventional techniques well known in the pertinent art, 1 mg of nicardipine hydrochloride was dissolved in water for injection. To this was admixed 6 mg of sodium chloride and a sufficient amount of hydrochloric acid to give a solution having a pH of 3 5. This solution was then made up to volume with water for injection, i.e., to 1 ml. The resulting composition was packaged in an ampule and sterilized by autoclaving.
B. Then, in a following attempt to formulate a pharmaceutical composition of nicardipine hydrochloride for parenteral administration employing conventional techniques well known in the pertinent art, 1 mg of nicardipine hydrochloride together with about 50 mg of the non-chloride, saccharide compound, sorbitol, were dissolved in a portion of water for injection. Sufficient amounts of concentrated hydrochloric acid was added to produce a solution of pH 3.5 and the composition was made to volume with the remainder of the water for injection, i.e. to 1 ml. The resulting composition was packaged in an ampule and sterilized by autoclaving.
The solution was made up to volume, i.e 1 ml. with the remainder of the water for injection. This solution was then filled into ampules and terminally sterilized by autoclaving.

- Aqueous solubility as a function of pH [1]: reduction in the aqueous solubility
- solubility thermodynamic ([1]; water, pH 3.05, water): 2940 µg/mL
- solubility thermodynamic ([1]; water, pH 3.45, water): 3280 µg/mL
- Equilibrium solubility ([1]; water, pH 4.06): 5160 µg/mL
- solubility thermodynamic ([1]; water, pH 4.06, water): 2950 µg/mL
- solubility thermodynamic ([1]; water, pH 4.24, water): 2350 µg/mL
- solubility thermodynamic ([1]; water, pH 4.68, water): 850 µg/mL
- solubility thermodynamic ([1]; water, pH 5.05, water): 360 µg/mL
- solubility thermodynamic ([1]; water, pH 6.21, water): 25 µg/mL
- Dissolution ([2]; listed as Nicardipine HCl): very easy
- Dissolution [2]: rapid and complete dissolution
- Temperature that can be required for dissolution ([2]; dissolved in water, before buffer addition or unbuffered): 60-70 °C
- Dissolution in water for injection / free base precipitation ([2]; listed as Nicardipine HCl): difficult
Compound: COC(=O)C1=C(C)NC(C)=C(C(=O)OCCN(C)Cc2ccccc2)C1c1cccc([N+](=O)[O-])c1.Cl (stereo not shown) [Nicardipine Hydrochloride, 2-(Benzylmethylamino)ethyl methyl 1,4-dihydro-2,6-dimethyl-4-(m-nitrophenyl)-3,5-pyridine-dicarboxylate monohydrochloride]
- Precipitation of free base ([2]; dissolved in buffer solution): No precipitation of free base was observed
- Dissolution of required dose strength (1 mg per ml) ([2]; sodium chloride increased to give an isotonic solution): failure to dissolve sufficient nicardipine hydrochloride
- Dissolution in water for injection / free base precipitation [2]: formation of nicardipine free base which precipitates from solution
